Several values for one entry are separate records, joined by “and”; a condition that tells them apart may be missing. Identical values can stand only once. Numbers after ± are expanded uncertainties.
Columns and labels:
[1] = molar heat capacity at constant pressure; settings: 101.33 kPa, Liquid
[2] = Molar enthalpy of transition or fusion; settings: Crystal; DSC
[3] = Crystal; DTA

## [Br-].[Br-].[Br-].[Tb+3] [terbium tribromide]
[1]; 305 K
  molar heat capacity at constant pressure: 95.25 ± 3.8 J/K/mol
[1]; 310 K
  molar heat capacity at constant pressure: 96.04 ± 3.8 J/K/mol
[1]; 315 K
  molar heat capacity at constant pressure: 96.89 ± 3.9 J/K/mol
[1]; 320 K
  molar heat capacity at constant pressure: 96.99 ± 3.9 J/K/mol
[1]; 325 K
  molar heat capacity at constant pressure: 97.03 ± 3.9 J/K/mol
[1]; 330 K
  molar heat capacity at constant pressure: 96.84 ± 3.9 J/K/mol
[1]; 335 K
  molar heat capacity at constant pressure: 97.05 ± 3.9 J/K/mol
[1]; 340 K
  molar heat capacity at constant pressure: 97.06 ± 3.9 J/K/mol
[1]; 345 K
  molar heat capacity at constant pressure: 98.47 ± 3.9 J/K/mol
[1]; 350 K
  molar heat capacity at constant pressure: 98.03 ± 3.9 J/K/mol
[1]; 354 K
  molar heat capacity at constant pressure: 96.27 ± 3.9 J/K/mol
[1]; 359 K
  molar heat capacity at constant pressure: 96.56 ± 3.9 J/K/mol
[1]; 364 K
  molar heat capacity at constant pressure: 95.16 ± 3.8 J/K/mol
[1]; 369 K
  molar heat capacity at constant pressure: 95.49 ± 3.8 J/K/mol
[1]; 374 K
  molar heat capacity at constant pressure: 95.66 ± 3.8 J/K/mol
[1]; 379 K
  molar heat capacity at constant pressure: 94.73 ± 3.8 J/K/mol
[1]; 384 K
  molar heat capacity at constant pressure: 96.58 ± 3.9 J/K/mol
[1]; 389 K
  molar heat capacity at constant pressure: 94.78 ± 3.8 J/K/mol
[1]; 394 K
  molar heat capacity at constant pressure: 96.69 ± 3.9 J/K/mol
[1]; 399 K
  molar heat capacity at constant pressure: 97.48 ± 3.9 J/K/mol
[1]; 404 K
  molar heat capacity at constant pressure: 97.16 ± 3.9 J/K/mol
[1]; 409 K
  molar heat capacity at constant pressure: 97.43 ± 3.9 J/K/mol
[1]; 414 K
  molar heat capacity at constant pressure: 96.37 ± 3.9 J/K/mol
[1]; 419 K
  molar heat capacity at constant pressure: 97.26 ± 3.9 J/K/mol
[1]; 424 K
  molar heat capacity at constant pressure: 96.24 ± 3.9 J/K/mol
[1]; 429 K
  molar heat capacity at constant pressure: 97.6 ± 3.9 J/K/mol
[1]; 434 K
  molar heat capacity at constant pressure: 98.83 ± 4 J/K/mol
[1]; 439 K
  molar heat capacity at constant pressure: 98.92 ± 4 J/K/mol
[1]; 444 K
  molar heat capacity at constant pressure: 98.73 ± 4 J/K/mol
[1]; 449 K
  molar heat capacity at constant pressure: 100.77 ± 4 J/K/mol
[1]; 454 K
  molar heat capacity at constant pressure: 101.24 ± 4 J/K/mol
[1]; 459 K
  molar heat capacity at constant pressure: 102.68 ± 4.1 J/K/mol
[1]; 464 K
  molar heat capacity at constant pressure: 101.53 ± 4.1 J/K/mol
[1]; 469 K
  molar heat capacity at constant pressure: 101.69 ± 4.1 J/K/mol
[1]; 474 K
  molar heat capacity at constant pressure: 101.67 ± 4.1 J/K/mol
[1]; 479 K
  molar heat capacity at constant pressure: 101.42 ± 4.1 J/K/mol
[1]; 484 K
  molar heat capacity at constant pressure: 102.61 ± 4.1 J/K/mol
[1]; 489 K
  molar heat capacity at constant pressure: 102.5 ± 4.1 J/K/mol
[1]; 494 K
  molar heat capacity at constant pressure: 101.69 ± 4.1 J/K/mol
[1]; 499 K
  molar heat capacity at constant pressure: 102.17 ± 4.1 J/K/mol
[1]; 504 K
  molar heat capacity at constant pressure: 102.99 ± 4.1 J/K/mol
[1]; 509 K
  molar heat capacity at constant pressure: 102.18 ± 4.1 J/K/mol
[1]; 514 K
  molar heat capacity at constant pressure: 100.27 ± 4 J/K/mol
[1]; 519 K
  molar heat capacity at constant pressure: 96.88 ± 3.9 J/K/mol
[1]; 524 K
  molar heat capacity at constant pressure: 98.84 ± 4 J/K/mol
[1]; 529 K
  molar heat capacity at constant pressure: 97.84 ± 3.9 J/K/mol
[1]; 534 K
  molar heat capacity at constant pressure: 99.15 ± 4 J/K/mol
[1]; 539 K
  molar heat capacity at constant pressure: 97.79 ± 3.9 J/K/mol
[1]; 543 K
  molar heat capacity at constant pressure: 97.7 ± 3.9 J/K/mol
[1]; 548 K
  molar heat capacity at constant pressure: 97.62 ± 3.9 J/K/mol
[1]; 553 K
  molar heat capacity at constant pressure: 98.93 ± 4 J/K/mol
[1]; 558 K
  molar heat capacity at constant pressure: 98.58 ± 3.9 J/K/mol
[1]; 568 K
  molar heat capacity at constant pressure: 98.34 ± 3.9 J/K/mol
[1]; 573 K
  molar heat capacity at constant pressure: 98.95 ± 4 J/K/mol
[1]; 578 K
  molar heat capacity at constant pressure: 98.65 ± 4 J/K/mol
[1]; 583 K
  molar heat capacity at constant pressure: 99.14 ± 4 J/K/mol
[1]; 588 K
  molar heat capacity at constant pressure: 98.88 ± 4 J/K/mol
[1]; 593 K
  molar heat capacity at constant pressure: 100.12 ± 4 J/K/mol
[1]; 598 K
  molar heat capacity at constant pressure: 98.39 ± 3.9 J/K/mol
[1]; 603 K
  molar heat capacity at constant pressure: 99.23 ± 4 J/K/mol
[1]; 608 K
  molar heat capacity at constant pressure: 100.21 ± 4 J/K/mol
[1]; 613 K
  molar heat capacity at constant pressure: 99.21 ± 4 J/K/mol
[1]; 618 K
  molar heat capacity at constant pressure: 100.47 ± 4 J/K/mol
[1]; 623 K
  molar heat capacity at constant pressure: 100.62 ± 4 J/K/mol
[1]; 628 K
  molar heat capacity at constant pressure: 99.41 ± 4 J/K/mol
[1]; 633 K
  molar heat capacity at constant pressure: 99.03 ± 4 J/K/mol
[1]; 638 K
  molar heat capacity at constant pressure: 100.94 ± 4 J/K/mol
[1]; 643 K
  molar heat capacity at constant pressure: 100.9 ± 4 J/K/mol
[1]; 648 K
  molar heat capacity at constant pressure: 106.81 ± 4.3 J/K/mol
[1]; 653 K
  molar heat capacity at constant pressure: 99.85 ± 4 J/K/mol and 102.18 ± 4.1 J/K/mol
[1]; 658 K
  molar heat capacity at constant pressure: 101.21 ± 4 J/K/mol
[1]; 663 K
  molar heat capacity at constant pressure: 102.1 ± 4.1 J/K/mol
[1]; 668 K
  molar heat capacity at constant pressure: 99.19 ± 4 J/K/mol
[1]; 673 K
  molar heat capacity at constant pressure: 98.9 ± 4 J/K/mol
[1]; 678 K
  molar heat capacity at constant pressure: 101.61 ± 4.1 J/K/mol
[1]; 683 K
  molar heat capacity at constant pressure: 98.15 ± 3.9 J/K/mol
[1]; 688 K
  molar heat capacity at constant pressure: 99.94 ± 4 J/K/mol
[1]; 693 K
  molar heat capacity at constant pressure: 98.07 ± 3.9 J/K/mol
[1]; 698 K
  molar heat capacity at constant pressure: 97.98 ± 3.9 J/K/mol
[1]; 703 K
  molar heat capacity at constant pressure: 96.7 ± 3.9 J/K/mol
[1]; 708 K
  molar heat capacity at constant pressure: 97.79 ± 3.9 J/K/mol
[1]; 713 K
  molar heat capacity at constant pressure: 99.85 ± 4 J/K/mol
[1]; 717 K
  molar heat capacity at constant pressure: 99.17 ± 4 J/K/mol
[1]; 722 K
  molar heat capacity at constant pressure: 99.02 ± 4 J/K/mol
[1]; 727 K
  molar heat capacity at constant pressure: 99.08 ± 4 J/K/mol
[1]; 732 K
  molar heat capacity at constant pressure: 99.98 ± 4 J/K/mol
[1]; 737 K
  molar heat capacity at constant pressure: 99.41 ± 4 J/K/mol
[1]; 742 K
  molar heat capacity at constant pressure: 101.93 ± 4.1 J/K/mol
[1]; 747 K
  molar heat capacity at constant pressure: 100.1 ± 4 J/K/mol
[1]; 752 K
  molar heat capacity at constant pressure: 104.88 ± 4.2 J/K/mol
[1]; 757 K
  molar heat capacity at constant pressure: 100.82 ± 4 J/K/mol
[1]; 762 K
  molar heat capacity at constant pressure: 101 ± 4 J/K/mol
[1]; 767 K
  molar heat capacity at constant pressure: 101.85 ± 4.1 J/K/mol
[1]; 772 K
  molar heat capacity at constant pressure: 102.41 ± 4.1 J/K/mol
[1]; 777 K
  molar heat capacity at constant pressure: 103.2 ± 4.1 J/K/mol
[1]; 782 K
  molar heat capacity at constant pressure: 102.71 ± 4.1 J/K/mol
[1]; 787 K
  molar heat capacity at constant pressure: 101.9 ± 4.1 J/K/mol
[1]; 792 K
  molar heat capacity at constant pressure: 101.02 ± 4 J/K/mol
[1]; 797 K
  molar heat capacity at constant pressure: 101.52 ± 4.1 J/K/mol
[1]; 802 K
  molar heat capacity at constant pressure: 101.51 ± 4.1 J/K/mol
[1]; 807 K
  molar heat capacity at constant pressure: 99.68 ± 4 J/K/mol
[1]; 812 K
  molar heat capacity at constant pressure: 103.05 ± 4.1 J/K/mol
[1]; 817 K
  molar heat capacity at constant pressure: 103.73 ± 4.2 J/K/mol
[1]; 822 K
  molar heat capacity at constant pressure: 102.94 ± 4.1 J/K/mol
[1]; 827 K
  molar heat capacity at constant pressure: 103.83 ± 4.2 J/K/mol
[1]; 832 K
  molar heat capacity at constant pressure: 99.83 ± 4 J/K/mol
[1]; 837 K
  molar heat capacity at constant pressure: 98.83 ± 4 J/K/mol
[1]; 842 K
  molar heat capacity at constant pressure: 101.98 ± 4.1 J/K/mol
[1]; 847 K
  molar heat capacity at constant pressure: 103.78 ± 4.2 J/K/mol
[1]; 852 K
  molar heat capacity at constant pressure: 103.32 ± 4.1 J/K/mol
[1]; 857 K
  molar heat capacity at constant pressure: 99.15 ± 4 J/K/mol
[1]; 862 K
  molar heat capacity at constant pressure: 102.98 ± 4.1 J/K/mol
[1]; 867 K
  molar heat capacity at constant pressure: 101.94 ± 4.1 J/K/mol
[1]; 872 K
  molar heat capacity at constant pressure: 105.24 ± 4.2 J/K/mol
[1]; 877 K
  molar heat capacity at constant pressure: 101.33 ± 4 J/K/mol
[1]; 882 K
  molar heat capacity at constant pressure: 103.27 ± 4.1 J/K/mol
[1]; 887 K
  molar heat capacity at constant pressure: 97.19 ± 3.9 J/K/mol
[1]; 892 K
  molar heat capacity at constant pressure: 97.82 ± 3.9 J/K/mol
[1]; 897 K
  molar heat capacity at constant pressure: 98.26 ± 3.9 J/K/mol
[1]; 902 K
  molar heat capacity at constant pressure: 101.94 ± 4.1 J/K/mol
[1]; 907 K
  molar heat capacity at constant pressure: 97.88 ± 3.9 J/K/mol
[1]; 911 K
  molar heat capacity at constant pressure: 97.43 ± 3.9 J/K/mol
[1]; 916 K
  molar heat capacity at constant pressure: 100.85 ± 4 J/K/mol
[1]; 921 K
  molar heat capacity at constant pressure: 97.21 ± 3.9 J/K/mol
[1]; 926 K
  molar heat capacity at constant pressure: 100.73 ± 4 J/K/mol
[1]; 931 K
  molar heat capacity at constant pressure: 95.04 ± 3.8 J/K/mol
[1]; 936 K
  molar heat capacity at constant pressure: 99.59 ± 4 J/K/mol
[1]; 941 K
  molar heat capacity at constant pressure: 98.67 ± 4 J/K/mol
[1]; 946 K
  molar heat capacity at constant pressure: 99.44 ± 4 J/K/mol
[1]; 951 K
  molar heat capacity at constant pressure: 102.23 ± 4.1 J/K/mol
[1]; 956 K
  molar heat capacity at constant pressure: 103.73 ± 4.2 J/K/mol
[1]; 961 K
  molar heat capacity at constant pressure: 99.7 ± 4 J/K/mol
[1]; 966 K
  molar heat capacity at constant pressure: 98.27 ± 3.9 J/K/mol
[1]; 971 K
  molar heat capacity at constant pressure: 101.79 ± 4.1 J/K/mol
[1]; 976 K
  molar heat capacity at constant pressure: 102.55 ± 4.1 J/K/mol
[1]; 981 K
  molar heat capacity at constant pressure: 97.92 ± 3.9 J/K/mol
[1]; 986 K
  molar heat capacity at constant pressure: 104.37 ± 4.2 J/K/mol
[1]; 991 K
  molar heat capacity at constant pressure: 100.42 ± 4 J/K/mol
[1]; 996 K
  molar heat capacity at constant pressure: 107.17 ± 4.3 J/K/mol
[1]; 1001 K
  molar heat capacity at constant pressure: 105.67 ± 4.2 J/K/mol
[1]; 1006 K
  molar heat capacity at constant pressure: 110.34 ± 4.4 J/K/mol
[1]; 1011 K
  molar heat capacity at constant pressure: 102.11 ± 4.1 J/K/mol
[1]; 1016 K
  molar heat capacity at constant pressure: 100.99 ± 4 J/K/mol
[1]; 1021 K
  molar heat capacity at constant pressure: 106.91 ± 4.3 J/K/mol
[1]; 1026 K
  molar heat capacity at constant pressure: 105.87 ± 4.2 J/K/mol
[1]; 1031 K
  molar heat capacity at constant pressure: 112.44 ± 4.5 J/K/mol
[1]; 1036 K
  molar heat capacity at constant pressure: 99.98 ± 4 J/K/mol
[1]; 1041 K
  molar heat capacity at constant pressure: 101.71 ± 4.1 J/K/mol
[1]; 1046 K
  molar heat capacity at constant pressure: 101.91 ± 4.1 J/K/mol
[1]; 1051 K
  molar heat capacity at constant pressure: 106.32 ± 4.2 J/K/mol
[1]; 1056 K
  molar heat capacity at constant pressure: 110.86 ± 4.4 J/K/mol
[1]; 1061 K
  molar heat capacity at constant pressure: 111.7 ± 4.5 J/K/mol
[2]
  Molar enthalpy of transition or fusion: 8.94 ± 0.287 kcal/mol
[3]
  Normal melting temperature: 830 ± 2 °C
